Consider twelve compounds from patent US6664267B1, “Crystalline fluoroquinolone arginine salt form” (Wockhardt Limited, priority 2002, dated 2003).

A short description of data set [1]: antimicrobial activity.
Data set [2] relates to Staphylococci. As to the kind of experiment: eradication of Staphylococci from vital organs and thigh muscle. It is filed as in vivo. The note with it: compared with the standard drugs.
Data set [3] in a line: antibacterial minimum inhibitory concentration (MIC). The data set is classed as cell-based.
A short description of data set [4]: bulk density determination. The data set is classed as physicochemical. An excerpt:
Untapped density=25 g/untapped volume.
Tapped density=25 g/Tapped volume.

The test system of data set [5] is respiratory pathogens. The data set is described as follows: treating respiratory pathogens.
For data set [6], the system named is rodents. As to conditions: in vivo.
Data set [7] in a line: dissolution rate. It is filed as physicochemical.
Data set [8] in a line: hygroscopicity / moisture uptake on exposure to humidity, determined gravimetrically. The data set is classed as physicochemical.
Data set [9] in a line: mean mass diameter determination by laser diffraction. The note with it: for Mean mass diameter: laser diffraction, four different samples made by the procedure of example 1, Hydrate. The data set is classed as physicochemical. The source says:
For mean mass diameter Master Sizer of Malvern Instrument LTD U.K. was used under the conditions listed below:
Analysis model: Polydisperse
Obstruction value: 20-23%

For data set [10], the system named is high density bacterial inoculum. As to the kind of experiment: cidal effect with high density bacterial inoculum. It is filed as cell-based. As to conditions: high density bacterial inoculum (10^8 cfu/ml).
Data set [11] relates to resistant Staphylococcus aureus.
The test system of data set [12] is resistant mutants. The data set is described as follows: treating resistant mutants.
For data set [13], the system named is slow-growing Staphylococci. As to the kind of experiment: cidal action against slow-growing Staphylococci. The data set is classed as cell-based.
The subject of data set [14] is rats. As to conditions: rat, in vivo, iv.
The conditions of data set [15]: in vivo.
The mark [16] stands for this setting: exposure at a relative humidity of 41%.

Several values for one entry are separate records, joined by “and”; a condition that tells them apart may be missing. Equal values may be shown once. Where a name gives a salt, the structure may show the parent alone. Read-outs that look alike come from different tables or passages of the source.

Regarding `CC1CCc2c(N3CCC(O)CC3)c(F)cc3c(=O)c(C(=O)O)cn1c23.N=C(N)NCCC[C@H](N)C(=O)O` (racemic) [Example 8, RS-(±)-9-Fluoro-6,7-dihydro-8-(4-hydroxypiperidin-1-yl)-5-methyl-1-oxo-1H,5H-benzo[i,j]quinolizine-2-carboxylic Acid L-Arginine Salt], the antimicrobial activity entry in data set [1] is recorded as “have antimicrobial activity”.
For the compound `CC1CCc2c(N3CCC(O)CC3)c(F)cc3c(=O)c(C(=O)O)cn1c23.N=C(N)NCCC[C@@H](N)C(=O)O` (racemic) [Example 9, RS-(±)-9-Fluoro-6,7-dihydro-8-(4-hydroxypiperidin-1-yl)-5-methyl-1-oxo-1H,5H-benzo[i,j]quinolizine-2-carboxylic Acid D-Arginine Salt], in data set [1], the antimicrobial activity result was “have antimicrobial activity”.
Still for that read-out and setting: with `CC1CCc2c(N3CCC(O)CC3)c(F)cc3c(=O)c(C(=O)O)cn1c23.N=C(N)NCCCC(N)C(=O)O` (racemic) [R, S-9-fluoro-6,7-dihydro-8-(4-hydroxypiperidin-1-yl)-5-methyl-1-oxo-1H,5H-benzo[i,j]-quinolizine-2-carboxylic acid DL-arginine salt] the entry was “have antimicrobial activity”; with `C[C@@H]1CCc2c(N3CCC(O)CC3)c(F)cc3c(=O)c(C(=O)O)cn1c23.N=C(N)NCCCC(N)C(=O)O` (stereo in doubt) [R-(+)-9-fluoro-6,7-dihydro-8-(4-hydroxypiperidin-1-yl)-5-methyl-1-oxo-1H,5H-benzo[i,j]-quinolizine-2-carboxylic acid DL-arginine salt], “have antimicrobial activity”.
Still for that read-out and setting: under `C[C@H]1CCc2c(N3CCC(O)CC3)c(F)cc3c(=O)c(C(=O)O)cn1c23.N=C(N)NCCCC(N)C(=O)O` (stereo in doubt) [S-(−)-9-fluoro-6,7-dihydro-8-(4-hydroxypiperidin-1-yl)-5-methyl-1-oxo-1H,5H-benzo[i,j]-quinolizine-2-carboxylic acid DL-arginine salt] stands “have antimicrobial activity”.
As for `C[C@H]1CCc2c(N3CCC(O)CC3)c(F)cc3c(=O)c(C(=O)O)cn1c23` [Example 1, S-(−)-9-Fluoro-6,7-dihydro-8-(4-hydroxypiperidin-1-yl)-5-methyl-1-oxo-1H,5H-benzo[i,j]quinolizine-2-carboxylic Acid L-Arginine Salt Hydrate], the eradication efficacy result in data set [2] was “scores over the standard drugs”. In data set [3], the “antibacterial minimum inhibitory concentration (MIC) values compared with the free acid” value is given as “same antibacterial minimum inhibitory concentration (MIC) values as the free active ingredient”. For the same compound, the “retention of potency at acidic pH” value in data set [3] (acidic pH of 5.5) was “unusual ability to retain potency”. Besides, in data set [4] (25 gm/tapped volume, tapped 150 times), the “bulk density (tapped)” value is 0.64 g/mL. Further, the “bulk density (untapped)” value in data set [4] (25 gm/untapped volume) was determined as 0.57 g/mL. Moreover, the “effectiveness in treating respiratory pathogens” value in data set [5] is reported as “effective”. Also, the toxicity result in data set [6] was “less toxic in rodents than the alkali salt forms”. In data set [7], the dissolution rate result is “acceptable dissolution rate”. Moreover, in data set [8], the hygroscopicity result is “to a certain degree hygroscopic”. Besides, the “moisture absorption compared with the sodium salt” value in data set [8] (at specified humidity levels) is recorded as “less prone than the sodium salt to absorb moisture”. The Mean mass diameter in data set [9] is 32.92 μm and 24.22 μm and 34.51 μm and 39.07 μm; in data set [9] (listed as S-(−)-9-fluoro-6,7-dihydro-8-(4-hydroxypiperidin-1-yl)-5-methyl-1-oxo-1H,5H-benz), “less than or equal to 40 μm”. Also, the “Mean mass diameter, mean value” in [9] (mean of four samples of Table 1) came to 32.68 μm. Further, the cidal effect entry in [10] was “unusual superior cidal effect”. Besides, the “activity against resistant Staphylococcus aureus” value in [11] is listed as “potent activity”. Besides, in data set [12], the “effectiveness in treating resistant mutants” value is “effective”. In addition, the cidal action result in data set [13] is on record as “superior cidal action”. Also, the “propensity to cause phlebitis” value in data set [14] was “lower propensity to cause phlebitis than the sodium and potassium salts”. Further, the bioavailability entry in data set [15] was “good bioavailability”.
On to `C[C@H]1CCc2c(N3CCC(O)CC3)c(F)cc3c(=O)c(C(=O)O)cn1c23.N=C(N)NCCC[C@@H](N)C(=O)O` [Example 5, S-(−)-9-Fluoro-6,7-dihydro-8-(4-hydroxypiperidin-1-yl)-5-methyl-1-oxo-1H,5H-benzo[i,j]quinolizine-2-carboxylic Acid D-Arginine Salt], for which, in data set [1], the antimicrobial activity entry is reported as “have antimicrobial activity”.
The same measure, in the same setting: with `C[C@@H]1CCc2c(N3CCC(O)CC3)c(F)cc3c(=O)c(C(=O)O)cn1c23.N=C(N)NCCC[C@H](N)C(=O)O` [Example 6, R-(+)-9-Fluoro-6,7-dihydro-8-(4-hydroxypiperidin-1-yl)-5-methyl-1-oxo-1H,5H-benzo[i,j]quinolizine-2-carboxylic Acid L-Arginine Salt] the entry was “have antimicrobial activity”; with `C[C@@H]1CCc2c(N3CCC(O)CC3)c(F)cc3c(=O)c(C(=O)O)cn1c23.N=C(N)NCCC[C@@H](N)C(=O)O` [Example 7, R-(+)-9-Fluoro-6,7-dihydro-8-(4-hydroxypiperidin-1-yl)-5-methyl-1-oxo-1H,5H-benzo[i,j]quinolizine-2-carboxylic Acid D-Arginine Salt], “have antimicrobial activity”.
Take “S-(−)-9-fluoro-6,7-dihydro-8-(4-hydroxypiperidin-1-yl)-5-methyl-1-oxo-1H,5H-benzo[i,j]quinolizine-2-carboxylic acid [reference compound]”: the “antimicrobial activity compared with the R-(+)- and RS- acids” value in data set [1] is on record as “more potent antimicrobial activity”.
With “S-(−)-9-fluoro-6,7-dihydro-8-(4-hydroxypiperidin-1-yl)-5-methyl-1-oxo-1H,5H-benzo[i,j]quinolizine-2-carboxylic acid, L-arginine salt 0.25 hydrate [reference compound]”, in [8] (setting [16]), the hygroscopicity result is “highly hygroscopic and turn into syrups”.
For the compound “S-(−)-9-fluoro-6,7-dihydro-8-(4-hydroxypiperin-1-yl)-5-methyl-1-oxo-1H,5H-benzo[i,j]quinolizine-2-carboxylic acid, L-arginine salt, 0.75 hydrate [reference compound]”, the hygroscopicity result in data set [8] (setting [16]) is “highly hygroscopic and turn into syrups”.
